Earlier results as cited in the PKSmart pharmacokinetics tables (Seal et al. 2025).

Test: Lombardo, Berellini, Obach 2018, Drug Metab Dispos 46:1466, doi 10.1124/dmd.118.082966
Details: human; for MRT / Vd / clearance / half-life: in vivo, iv; for fraction unbound: plasma

Structure (SMILES)	MRT	Vd	clearance	half-life	fraction unbound
Oc1ccc([C@H]2CNCCc3c2cc(O)c(O)c3Cl)cc1	0.2 h	0.5 L/kg	41.5 mL/min/kg	60 min	0.12
CC(=O)OC1=C2C(C)[C@@H](OC(=O)C(O)C(NC(=O)OC(C)(C)C)c3ccccc3)C[C@@](O)([C@@H](OC(=O)c3ccccc3)[C@@H]3[C@]4(OC(C)=O)CO[C@@H]4C[C@@H]4C[C@@]43C1=O)C2(C)C (some centres not stated)	26.1 h	17 L/kg	10.8 mL/min/kg	2030 min	–
CCOP(=O)(OCC)C(C)NC(=O)N(CCCl)N=O (configuration not stated)	0.55 h	0.62 L/kg	18.5 mL/min/kg	22.8 min	–
CC[C@H]1C2C[C@H]3[C@@H]4N(C)c5ccccc5C45C[C@@H](C2[C@H]5O)N3[C@@H]1O (some centres not stated)	6.8 h	4 L/kg	9.8 mL/min/kg	438 min	0.24
CN1C[C@H](CNC(=O)OCc2ccccc2)C[C@@H]2c3cccc4c3c(cn4C)C[C@H]21	1 h	0.57 L/kg	9.6 mL/min/kg	55.8 min	–
COc1c(C)cc2c(c1O)[C@@H]1[C@@H]3Cc4c(OC(C)=O)c(C)c5c(c4[C@H](CNC(=O)/C=C/c4cccc(C(F)(F)F)c4)N3[C@@H](O)[C@H](C2)N1C)OCO5	17.5 h	12.6 L/kg	12 mL/min/kg	1330 min	–
C[N+]1(C)CCC(OC(=O)C(O)(c2ccccc2)C2CCCC2)C1 (configuration not stated)	0.37 h	–	–	–	–
CC1C(=O)O[C@H]2[C@H](O)C34[C@H]5C[C@@H](C(C)(C)C)C36C(O)C(=O)O[C@H]6OC4(C(=O)O5)[C@@]12O (some centres not stated)	6.6 h	0.91 L/kg	2.3 mL/min/kg	312 min	0.8
CN(C)c1ccc(O)c2c1C[C@H]1C[C@H]3[C@H](N(C)C)C(O)=C(C(N)=O)C(=O)[C@@]3(O)C(O)=C1C2=O	–	–	–	–	0.005
CCn1cc(C(=O)O)c(=O)c2cc(F)c(N3CCN[C@@H](C)C3)c(F)c21	7.89 h	2.04 L/kg	3.98 mL/min/kg	486 min	–
CN(CCCCCCN(C)C(=O)Oc1ccc[n+](C)c1)C(=O)Oc1ccc[n+](C)c1	82.4 h	1 L/kg	0.2 mL/min/kg	3590 min	–
COc1cc(OC)c(C(=O)CCCN2CCCC2)c(OC)c1	3.9 h	1.3 L/kg	5.6 mL/min/kg	198 min	–
N=C(N)N=c1[nH]c(CSCCC(=N)NS(N)(=O)=O)cs1	3 h	1.2 L/kg	6.6 mL/min/kg	168 min	0.84
CC1(C)[C@@H](O[C@H]2OC(C(=O)O)[C@@H](O)[C@H](O)[C@H]2O[C@@H]2OC(C(=O)O)[C@@H](O)[C@H](O)[C@H]2O)CC[C@]2(C)C3C(=O)C=C4C5C[C@@](C)(C(=O)O)CC[C@]5(C)CC[C@]4(C)[C@@]3(C)CC[C@@H]12 (some centres not stated)	7.83 h	0.06 L/kg	0.13 mL/min/kg	530 min	–
CC(Oc1ccccc1)C(=O)NC1C(=O)N2C(C(=O)O)C(C)(C)S[C@H]12 (some centres not stated)	1.2 h	0.3 L/kg	4.2 mL/min/kg	54.6 min	0.25
C[C@H]1COc2c(C3(N)CC3)c(F)cc3c(=O)c(C(=O)O)cn1c23	2.32 h	0.68 L/kg	4.87 mL/min/kg	126 min	0.79
CC(C(=O)O)c1ccc(N2Cc3ccccc3C2=O)cc1 (configuration not stated)	2.7 h	0.12 L/kg	0.65 mL/min/kg	127 min	0.01
CC(=O)O[C@@]12CO[C@@H]1C[C@H](O)[C@@]1(C)C(=O)C(=O)C3C(C)[C@@H](OC(=O)C(O)C(NC(=O)OC(C)(C)C)c4ccccc4)C[C@@](O)([C@@H](OC(=O)c4ccccc4)[C@H]21)C3(C)C (some centres not stated)	2.5 h	2.1 L/kg	14 mL/min/kg	660 min	0.04
CC[C@]1(O)C[C@@H]2CN(CCc3c([nH]c4ccccc34)[C@@](C(=O)OC)(c3cc4c(cc3OC)N(C=O)[C@H]3[C@@](O)(C(=O)OC)[C@H](OC(C)=O)[C@]5(CC)C=CCN6CC[C@]43[C@@H]65)C2)C1	20 h	2.4 L/kg	2 mL/min/kg	1380 min	–
Nc1nc(=O)c2nc(CNc3ccc(C(=O)NC(CCC(=O)O)C(=O)O)cc3)cnc2[nH]1 (configuration not stated)	3.1 h	9.7 L/kg	52 mL/min/kg	156 min	0.5
CC(NC(CCc1ccccc1)C(=O)O)C(=O)N1Cc2ccccc2CC1C(=O)O (configuration not stated)	2.3 h	0.13 L/kg	0.93 mL/min/kg	138 min	–
O=C(O)C1=C(CSc2nnnn2CS(=O)(=O)O)CS[C@@H]2C(NC(=O)C(O)c3ccccc3)C(=O)N12 (some centres not stated)	5.8 h	0.14 L/kg	0.38 mL/min/kg	306 min	0.02

Structure (SMILES)	MRT	Vd	clearance	half-life	fraction unbound
CCN(CC)CCN1C(=O)c2c(c3c4cccc(Cl)c4n([C@@H]4O[C@H](CO)[C@@H](OC)[C@H](O)[C@H]4O)c3c3[nH]c4c(Cl)cccc4c23)C1=O	45.4 h	8.9 L/kg	3.13 mL/min/kg	2930 min	–
COC(=O)NC(C(=O)N1CCCC1C(=O)Nc1ccc([C@@H]2CC[C@@H](c3ccc(NC(=O)C4CCCN4C(=O)C(NC(=O)OC)C(C)C)cc3)N2c2ccc(C(C)(C)C)cc2)cc1)C(C)C (some centres not stated)	23.1 h	2.32 L/kg	1.68 mL/min/kg	1710 min	0.001
Cn1c(=O)c2c(ncn2CC2OCCO2)n(C)c1=O	2.5 h	1.03 L/kg	6.83 mL/min/kg	99.6 min	–
CC[C@@H](c1cccc(O)c1)[C@@H](C)CN(C)C	3.62 h	4.64 L/kg	21.3 mL/min/kg	143 min	–
OCCO[C@H]1C[C@@H](n2nnc3c(N[C@@H]4C[C@H]4c4ccc(F)c(F)c4)nc(S)nc32)[C@H](O)[C@@H]1O	6.16 h	1.25 L/kg	3.38 mL/min/kg	408 min	0.002
CNC(=O)Oc1ccc2c(c1)[C@@]1(C)CCN(C)[C@@H]1N2C	0.9 h	3.9 L/kg	72 mL/min/kg	60 min	0.64
CCC(C)(C)NCC(O)COc1ccccc1C(=O)CCc1ccccc1 (configuration not stated)	1.9 h	1.2 L/kg	11 mL/min/kg	90 min	0.017
O=C1c2cccc3c2[C@H](CCC3)CN1[C@@H]1CN2CCC1CC2	40 h	6.3 L/kg	2.6 mL/min/kg	2340 min	0.38
CN[C@@H]1[C@H](O[C@H]2[C@H](O[C@H]3[C@H](O)[C@@H](O)[C@H](NC(=N)N)[C@@H](O)[C@@H]3NC(=N)N)O[C@@H](C)[C@]2(O)C=O)O[C@@H](CO)[C@H](O)[C@H]1O	7.3 h	0.34 L/kg	0.78 mL/min/kg	258 min	0.65
COc1ccc2c(c1)c(CC(=O)O)c(C)n2C(=O)c1ccc(Cl)cc1	1.2 h	0.096 L/kg	1.3 mL/min/kg	84 min	–
CC1(C)S[C@@H]2C(NC(=O)Cc3ccccc3)C(=O)N2C1C(=O)O (some centres not stated)	0.58 h	0.24 L/kg	6.9 mL/min/kg	42 min	0.4
CN(C)CCCN1c2ccccc2CCc2ccccc21	–	–	–	–	0.075
C[C@@H](O)C1C(=O)N2C(C(=O)O)=C(S[C@H]3CC(C(=O)N4CC[C@H](NC(=O)CNC(=N)N)C4)N(C)C3)[C@H](C)[C@H]12 (some centres not stated)	2 h	0.23 L/kg	1.9 mL/min/kg	102 min	0.91
N=C(N)c1ccc(CNC(=O)C2CCN2C(=O)C(NCC(=O)O)C2CCCCC2)cc1 (configuration not stated)	2 h	0.23 L/kg	1.9 mL/min/kg	96 min	–
CNC(=O)C(c1ccccc1)N1CCc2cc(OC)c(OC)cc2[C@@H]1CCc1ccc(C(F)(F)F)cc1 (some centres not stated)	15.9 h	9.75 L/kg	10.2 mL/min/kg	2060 min	–
COc1ccc(CCN(C)CCCN2Cc3cc(OC)c(OC)cc3C2=O)cc1OC	2.62 h	2.4 L/kg	15.7 mL/min/kg	122 min	0.12
CC[C@@]1(O)C(=O)OCc2c1cc1n(c2=O)Cc2c-1nc1cc(F)c(C)c3c1c2[C@@H](N)CC3	7.6 h	0.44 L/kg	0.96 mL/min/kg	402 min	–
CC(=O)N(CC(O)CO)c1c(I)c(C(=O)NCC(O)CO)c(I)c(C(=O)NCC(O)CO)c1I (configuration not stated)	1.3 h	0.16 L/kg	2 mL/min/kg	90 min	1
Cc1ccc([C@@H]2O[C@H](CO)[C@@H](O)[C@H](O)[C@H]2O)cc1Cc1ccc(-c2ccc(F)cc2)s1	7.25 h	1.19 L/kg	2.74 mL/min/kg	618 min	0.01
CC1(C)S[C@@H]2C(NC(=O)C(NC(=O)N3CCNC3=O)c3ccccc3)C(=O)N2C1C(=O)O (some centres not stated)	1.7 h	0.26 L/kg	2.5 mL/min/kg	72 min	0.65
O=S(=O)(O)c1cc(O)ccc1O	2.41 h	0.12 L/kg	0.87 mL/min/kg	121 min	–
NC(CCC(=O)NC(Cc1ccc(O)c(O)c1)C(=O)O)C(=O)O (configuration not stated)	0.74 h	0.21 L/kg	4.6 mL/min/kg	30 min	–

Structure (SMILES)	MRT	Vd	clearance	half-life	fraction unbound
COC(=O)C[C@@](O)(CCCC(C)(C)O)C(=O)O[C@@H]1C(OC)=C[C@]23CCCN2CCc2cc4c(cc2[C@H]13)OCO4	10.2 h	1.8 L/kg	2.96 mL/min/kg	588 min	–
O=C1NC(c2ccccc2)(c2ccccc2)C(=O)N1COP(=O)(O)O	0.17 h	0.06 L/kg	3.5 mL/min/kg	9.6 min	0.05
CCOC(Cc1ccc(OCCc2ccc(OS(C)(=O)=O)cc2)cc1)C(=O)O (configuration not stated)	56 h	0.13 L/kg	0.039 mL/min/kg	2700 min	–
Clc1ccc2nsnc2c1NC1=NCCN1	3.6 h	2.4 L/kg	11 mL/min/kg	144 min	–
Cc1nnc(SCC2=C(C(=O)O)N3C(=O)C(NC(=O)C(O)c4ccccc4)[C@H]3SC2)s1 (some centres not stated)	0.83 h	0.13 L/kg	2.6 mL/min/kg	60 min	–
CC(C)n1c(/C=C/[C@H](O)C[C@H](O)CC(=O)O)c(-c2ccc(F)cc2)c2ccccc21	0.44 h	0.42 L/kg	–	42 min	–
CCOC(=O)C(CCc1ccccc1)NC(C)C(=O)N1Cc2cc(OC)c(OC)cc2CC1C(=O)O (configuration not stated)	–	–	6.3 mL/min/kg	78 min	0.12
CCOc1cc(CC(=O)N[C@@H](CC(C)C)c2ccccc2N2CCCCC2)ccc1C(=O)O	1.88 h	0.315 L/kg	4.92 mL/min/kg	101 min	–
C[C@H]1O[C@@H](O[C@H]2[C@@H](O)C[C@H](O[C@H]3[C@@H](O)C[C@H](O[C@H]4CC[C@@]5(C)[C@H](CC[C@@H]6[C@@H]5CC[C@]5(C)[C@@H](C7=CC(=O)OC7)CC[C@]65O)C4)O[C@@H]3C)O[C@@H]2C)C[C@H](O)[C@@H]1O	170 h	0.44 L/kg	0.043 mL/min/kg	–	0.066
c1ccc(C2(c3ccccc3)CC2C2=NCCN2)cc1 (configuration not stated)	7.8 h	4.1 L/kg	8.6 mL/min/kg	438 min	–
C[C@@H](O)C1C(=O)N2C(C(=O)O)=C(SCCNC=N)C[C@H]12 (some centres not stated)	1.3 h	–	3 mL/min/kg	57 min	–
COc1cccc2c1[C@H](CO)N1[C@H](C#N)[C@@H]3CC(C(=O)O)[C@H]([C@@H]1C2)N3C (some centres not stated)	1.23 h	0.23 L/kg	3.06 mL/min/kg	91.2 min	–
C[C@@H](Cc1ccccc1)NC(=O)C(N)CCCCN (some centres not stated)	0.6 h	0.6 L/kg	17 mL/min/kg	72 min	–
CCOc1ccc(CC2=NCCc3cc(OCC)c(OCC)cc32)cc1OCC	9 h	1.9 L/kg	3.5 mL/min/kg	558 min	–
CN1[C@@H]2CCC[C@H]1C[C@@H](NC(=O)c1nn(C)c3ccccc13)C2	6.7 h	3.7 L/kg	9.1 mL/min/kg	312 min	–
C=C(CC)C(=O)c1ccc(OCC(=O)O)c(Cl)c1Cl	0.5 h	0.26 L/kg	8.7 mL/min/kg	30 min	–
CCCCC[C@H](O)/C=C/[C@@H]1C(CCCCCCC(=O)O)C(=O)C[C@H]1O (some centres not stated)	0.9 h	2.4 L/kg	45.4 mL/min/kg	114 min	–
CN(C)CC/C=C1/c2ccccc2Sc2ccc(Cl)cc21	20.7 h	13.7 L/kg	11.5 mL/min/kg	1550 min	–
CC[C@H]1OC(=O)C[C@@H](O)[C@H](C)[C@@H](O[C@@H]2O[C@H](C)C[C@H](N(C)C)[C@@H]2O)[C@@H](CC=O)CC(C)C(=O)C=C[C@]2(C)O[C@H]2[C@@H]1C (some centres not stated)	3.54 h	2.83 L/kg	13.3 mL/min/kg	200 min	–
C[C@@H]([C@@H](O)c1ccc(O)cc1)N1CCC(O)(c2ccccc2)CC1	2.6 h	4.4 L/kg	27 mL/min/kg	222 min	0.63
CN(C)Cc1nnc2n1-c1ccc(Cl)cc1C(c1ccccc1)=NC2	2.6 h	0.98 L/kg	6.2 mL/min/kg	126 min	–
